This is an account of results in US9533961B2, “Molecules having certain pesticidal utilities, and intermediates, compositions, and processes related thereto” (priority 2014, dated 2017).

Assay type in all cases: in vivo
Data set [1] concerns Beet Armyworm (Spodoptera exigua, LAPHEG) ("BAW"). Briefly: Bioassay on Beet Armyworm (BAW), 128-well diet tray assay. The conditions noted are these: 168 h, 50 μg/cm^2 on artificial diet, second instar larvae, five to seven days, 25° C., average of eight wells, read-out: BAW % Control (or Mortality) rating. The protocol:
(§1) Certain molecules disclosed in this document were tested against BAW and CEW using procedures described in the following examples. In the reporting of the results, the “BAW & CL Rating Table” was used (See Table Section).
Bioassays on BAW were conducted using a 128-well diet tray assay. one to five second instar BAW larvae were placed in each well (3 mL) of the diet tray that had been previously filled with 1 mL of artificial diet to which 50 μg/cm^2 of the test compound (dissolved in 50 μL of 90:10 acetone-water mixture) had been applied (to each of eight wells) and then allowed to dry. Trays were covered with a clear self-adhesive cover and held at 25° C., 14:10 light-dark for five to seven days. Percent mortality was recorded for the larvae in each well; activity in the eight wells was then averaged. The results are indicated in the table entitled “Table ABC: Biological Results” (See Table Section).

The test system of data set [2] is Cabbage Looper (Trichoplusia ni, TRIPNI) ("CL"). Briefly: Bioassay on Cabbage Looper (CL), 128-well diet tray assay. The settings on record: 168 h, read-out: CL % Control (or Mortality) rating. The protocol: as §1
Bioassays on CL were conducted using a 128-well diet tray assay. one to five second instar CL larvae were placed in each well (3 mL) of the diet tray that had been previously filled with 1 mL of artificial diet to which 50 μg/cm^2 of the test compound (dissolved in 50 μL of 90:10 acetone-water mixture) had been applied (to each of eight wells) and then allowed to dry. Trays were covered with a clear self-adhesive cover and held at 25° C., 14:10 light-dark for five to seven days. Percent mortality was recorded for the larvae in each well; activity in the eight wells was then averaged. The results are indicated in the table entitled “Table ABC: Biological Results” (See Table Section).

The subject of data set [3] is Yellow Fever Mosquito (Aedes aegypti, AEDSAE) ("YFM"). Briefly: Bioassay on Yellow Fever Mosquito (YFM), 96-well plate larval assay. The conditions noted are these: about 1 day-old larvae, from 4000 ppm master plate, scored on mortality after 3 days. The protocol:
Certain molecules disclosed in this document were tested against YFM using procedures described in the following paragraph. In the reporting of the results, the “YFM Rating Table” was used (See Table Section).
Master plates containing 400 μg of a molecule dissolved in 100 μL of dimethyl sulfoxide (DMSO) (equivalent to a 4000 ppm solution) are used. A master plate of assembled molecules contains 15 μL per well. To this plate, 135 μL of a 90:10 water:acetone mixture is added to each well. A robot (Biomek® NXP Laboratory Automation Workstation) is programmed to dispense 15 μL aspirations from the master plate into an empty 96-well shallow plate (“daughter” plate). There are 6 reps (“daughter” plates) created per master. The created daughter plates are then immediately infested with YFM larvae.
The day before plates are to be treated, mosquito eggs are placed in Millipore water containing liver powder to begin hatching (4 g. into 400 mL). After the daughter plates are created using the robot, they are infested with 220 μL of the liver powder/larval mosquito mixture (about 1 day-old larvae). After plates are infested with mosquito larvae, a non-evaporative lid is used to cover the plate to reduce drying. Plates are held at room temperature for 3 days prior to grading. After 3 days, each well is observed and scored based on mortality.

Regarding `Cc1ccc(C)c(-c2ccccc2C(=O)NCc2ccc(-c3ncn(-c4ccc(OC(F)(F)F)cc4)n3)cc2)c1` [F35, 2′,5′-Dimethyl-N-(4-(1-(4-(trifluoromethoxy)phenyl)-1H-1,2,4-triazol-3-yl)benzyl)biphenyl-2-carboxamide], the figures for the mortality at 50 µg/cm2 in data set [1] and in data set [2] were 0 to 50% and 50 to 100%, respectively. The “YFM % Control (or Mortality) rating” value in data set [3] was “B (More than 0 - Less than 80)”.

On to `O=C(Nc1ccc(-c2ncn(-c3ccc(OC(F)(F)F)cc3)n2)cc1)c1ccccc1Oc1ccccc1` [F4, 2-Phenoxy-N-(4-(1-(4-(trifluoromethoxy)phenyl)-1H-1,2,4-triazol-3-yl)phenyl)benzamide], for which the mortality at 50 µg/cm2 in data set [1] and in data set [2] was 50 to 100% throughout. In addition, in data set [3], the “YFM % Control (or Mortality) rating” value is on record as “D (No activity noticed in this bioassay)”.

With `O=C(Nc1ccc(-c2ncn(-c3ccc(OC(F)(F)F)cc3)n2)cc1)c1cccc(Oc2ccccc2)c1` [F5, 3-Phenoxy-N-(4-(1-(4-(trifluoromethoxy)phenyl)-1H-1,2,4-triazol-3-yl)phenyl)benzamide], the mortality at 50 µg/cm2 in data set [1] is 0%; in data set [2], 50 to 100%. Further, in data set [3], the “YFM % Control (or Mortality) rating” value was “D (No activity noticed in this bioassay)”.

As for `O=C(Nc1ccc(-c2ncn(-c3ccc(OC(F)(F)C(F)(F)F)cc3)n2)cc1)c1cccc(Oc2ccccc2)c1` [F9, N-(4-(1-(4-(perfluoroethoxy)phenyl)-1H-1,2,4-triazol-3-yl)phenyl)-3-phenoxybenzamide], the mortality at 50 µg/cm2 in data set [1] and in data set [2] was 0% in each case. In addition, the “YFM % Control (or Mortality) rating” value in data set [3] was “D (No activity noticed in this bioassay)”.

As to `CC(C)c1ccccc1C(=O)NCc1ccc(-c2ncn(-c3ccc(OC(F)(F)F)cc3)n2)cc1` [F31, 2-Isopropyl-N-(4-(1-(4-(trifluoromethoxy)phenyl)-1H-1,2,4-triazol-3-yl)benzyl)benzamide], the mortality at 50 µg/cm2 in data set [1] and in data set [2] was 0% throughout. The “YFM % Control (or Mortality) rating” value in data set [3] is “D (No activity noticed in this bioassay)”.

`Cc1ccccc1-c1ccccc1C(=O)NCc1ccc(-c2ncn(-c3ccc(OC(F)(F)F)cc3)n2)cc1` [F30, 2′-Methyl-N-(4-(1-(4-(trifluoromethoxy)phenyl)-1H-1,2,4-triazol-3-yl)benzyl)biphenyl-2-carboxamide]: the mortality at 50 µg/cm2 in data set [1] lay in the range of 0 to 50%; in data set [2], 50 to 100%. Moreover, in data set [3], the “YFM % Control (or Mortality) rating” value is given as “B (More than 0 - Less than 80)”.

Regarding `O=C(Nc1ccc(-c2ncn(-c3ccc(OC(F)(F)F)cc3)n2)cc1)c1ccc(-c2ccccc2)cc1` [F25, N-(4-(1-(4-(trifluoromethoxy)phenyl)-1H-1,2,4-triazol-3-yl)phenyl)-[1,1′-biphenyl]-4-carboxamide], the mortality at 50 µg/cm2 in data set [1] and in data set [2] was 0% each time. Also, the “YFM % Control (or Mortality) rating” value in data set [3] is “D (No activity noticed in this bioassay)”.

Turning to `CCOc1ccccc1Oc1ccccc1C(=O)Nc1ccc(-c2ncn(-c3ccc(OC(F)(F)C(F)(F)F)cc3)n2)cc1` [F18, 2-(2-Ethoxyphenoxy)-N-(4-(1-(4-(perfluoroethoxy)phenyl)-1H-1,2,4-triazol-3-yl)phenyl)benzamide], the mortality at 50 µg/cm2 in data set [1] and in data set [2] was 0% each time. Besides, in data set [3], the “YFM % Control (or Mortality) rating” value is listed as “D (No activity noticed in this bioassay)”.

As to `Cc1cccc(C)c1-c1ccccc1C(=O)NCc1ccc(-c2ncn(-c3ccc(OC(F)(F)F)cc3)n2)cc1` [F37, 2′,6′-Dimethyl-N-(4-(1-(4-(trifluoromethoxy)phenyl)-1H-1,2,4-triazol-3-yl)benzyl)biphenyl-2-carboxamide], the mortality at 50 µg/cm2 in data set [1] is 0 to 50%; in data set [2] it was 50 to 100%. The “YFM % Control (or Mortality) rating” value in data set [3] is “A (80-100)”.

Regarding `Cc1ccc(C(=O)NCc2ccc(-c3ncn(-c4ccc(OC(F)(F)F)cc4)n3)cc2)c(C)c1` [F29, 2,4-Dimethyl-N-(4-(1-(4-(trifluoromethoxy)phenyl)-1H-1,2,4-triazol-3-yl)benzyl)benzamide], the mortality at 50 µg/cm2 in data set [1] and in data set [2] was 0% in each case. Besides, the “YFM % Control (or Mortality) rating” value in data set [3] is “D (No activity noticed in this bioassay)”.

For `Cc1cccc(-c2ccccc2C(=O)NCc2ccc(-c3ncn(-c4ccc(OC(F)(F)F)cc4)n3)cc2)c1C` [F36, 2′,3′-Dimethyl-N-(4-(1-(4-(trifluoromethoxy)phenyl)-1H-1,2,4-triazol-3-yl)benzyl)biphenyl-2-carboxamide], the mortality at 50 µg/cm2 in data set [1] was in the range of 0 to 50%; in data set [2], 50 to 100%. Moreover, the “YFM % Control (or Mortality) rating” value in data set [3] is given as “A (80-100)”.

`Cc1ccc(C(C)C)c(C(=O)NCc2ccc(-c3ncn(-c4ccc(OC(F)(F)F)cc4)n3)cc2)c1` [F39, 2-Isopropyl-5-methyl-N-(4-(1-(4-(trifluoromethoxy)phenyl)-1H-1,2,4-triazol-3-yl)benzyl)benzamide]: the mortality at 50 µg/cm2 in data set [1] and in data set [2] was 0% each time. Moreover, the “YFM % Control (or Mortality) rating” value in data set [3] was “D (No activity noticed in this bioassay)”.

On to `COc1ccc(-c2ccccc2C(=O)NCc2ccc(-c3ncn(-c4ccc(OC(F)(F)F)cc4)n3)cc2)c(C)c1` [F38, 4′-Methoxy-2′-methyl-N-(4-(1-(4-(trifluoromethoxy)phenyl)-1H-1,2,4-triazol-3-yl)benzyl)biphenyl-2-carboxamide], for which the mortality at 50 µg/cm2 in data set [1] and in data set [2] was 0% throughout. The “YFM % Control (or Mortality) rating” value in data set [3] is reported as “D (No activity noticed in this bioassay)”.

Take `CC(C)COc1cccc(C(=O)Nc2ccc(-c3ncn(-c4ccc(OC(F)(F)F)cc4)n3)cc2)c1` [F19, 3-Isobutoxy-N-(4-(1-(4-(trifluoromethoxy)phenyl)-1H-1,2,4-triazol-3-yl)phenyl)benzamide]: the mortality at 50 µg/cm2 in data set [1] is 0%; in data set [2] it was 50 to 100%. Besides, the “YFM % Control (or Mortality) rating” value in data set [3] was “D (No activity noticed in this bioassay)”.

On to `COc1cccc(C(=O)Nc2ccc(-c3ncn(-c4ccc(OC(F)(F)F)cc4)n3)cc2)c1` [F13, 3-Methoxy-N-(4-(1-(4-(trifluoromethoxy)phenyl)-1H-1,2,4-triazol-3-yl)phenyl)benzamide], for which the mortality at 50 µg/cm2 in data set [1] and in data set [2] was 50 to 100% throughout. Further, the “YFM % Control (or Mortality) rating” value in data set [3] was “B (More than 0 - Less than 80)”.

Turning to `O=C(Nc1ccc(-c2ncn(-c3ccc(OC(F)(F)F)cc3)n2)cc1)c1ccccc1COC1CCOCC1` [F23, 2-(((Tetrahydro-2H-pyran-4-yl)oxy)methyl)-N-(4-(1-(4-(trifluoromethoxy)phenyl)-1H-1,2,4-triazol-3-yl)phenyl)benzamide], the mortality at 50 µg/cm2 in data set [1] and in data set [2] was 50 to 100% throughout. For the same compound, the “YFM % Control (or Mortality) rating” value in data set [3] is reported as “D (No activity noticed in this bioassay)”.

As to `O=C(Nc1ccc(-c2ncn(-c3ccc(OC(F)(F)F)cc3)n2)cc1)c1cccc(COCC(F)(F)C(F)F)c1` [F20, 3-((2,2,3,3-Tetrafluoropropoxy)methyl)-N-(4-(1-(4-(trifluoromethoxy)phenyl)-1H-1,2,4-triazol-3-yl)phenyl)benzamide], the mortality at 50 µg/cm2 in data set [1] and in data set [2] was 0% in each case. Besides, in data set [3], the “YFM % Control (or Mortality) rating” value is given as “B (More than 0 - Less than 80)”.

On to `O=C(Nc1ccc(-c2ncn(-c3ccc(OC(F)(F)F)cc3)n2)cc1)c1ccc(Oc2ccccc2)cc1` [F6, 4-Phenoxy-N-(4-(1-(4-(trifluoromethoxy)phenyl)-1H-1,2,4-triazol-3-yl)phenyl)benzamide], for which the mortality at 50 µg/cm2 in data set [1] and in data set [2] was 50 to 100% throughout. The “YFM % Control (or Mortality) rating” value in data set [3] was “D (No activity noticed in this bioassay)”.

Take `O=C(Nc1ccc(-c2ncn(-c3ccc(OC(F)(F)C(F)(F)F)cc3)n2)cc1)c1ccccc1Oc1ccccc1` [F8, N-(4-(1-(4-(Perfluoroethoxy)phenyl)-1H-1,2,4-triazol-3-yl)phenyl)-2-phenoxybenzamide]: the mortality at 50 µg/cm2 in data set [1] and in data set [2] was 0% throughout. The “YFM % Control (or Mortality) rating” value in data set [3] is “D (No activity noticed in this bioassay)”.

The term mortality denotes the percentage killed.
